# According to US6706663B2, “Herbicidal 3-heterocyclic substituted benzisothiazole and benzisoxazole compounds” (Wyeth, priority 2000, dated 2004):
# Tests used:
# GALAP (Galium aparine) [1] = assay: Postemergence herbicidal evaluation; assay type: in vivo
# Outline: (§1)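 Seedlings grown for about two weeks were sprayed postemergence and then kept under standard greenhouse care. Injury was rated visually 4–5 weeks after treatment on a 0–9 scale against untreated controls, and ratings from repeat tests were averaged.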
# ORYSAT (Rice, Tebonnet) [2] = assay: Preemergence herbicidal evaluation; assay type: in vivo, Oryza sativa, (L.) Tebonnet; settings: rated 4-5 weeks after treatment
# [3] = test system: TRZAWR (Wheat, Winter, cv Riband); assay: Preemergence herbicidal evaluation; assay type: in vivo, Triticum aestivum; settings: rated 4-5 weeks after treatment
# Outline: (§2)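 Greenhouse preemergence test: freshly planted cups were sprayed once with an aqueous acetone solution of compound. Injury was judged visually on a 0–9 scale relative to a control, four to five weeks later.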
# [4] = test system: AMBEL (Ambrosia artemisifolia); assay: Postemergence herbicidal evaluation; assay type: in vivo, L.
# Outline: as §1
# [5] = test system: CASOB (Cassia obtusifolia); assay: Postemergence herbicidal evaluation; assay type: in vivo, L.
# Outline: as §1
# [6] = test system: CHEAL (Chenopodium album); assay: Postemergence herbicidal evaluation; assay type: in vivo, L.
# Outline: as §1
# [7] = test system: ABUTH (Abutilon theophrasti); assay: Postemergence herbicidal evaluation; assay type: in vivo, Medic.
# Outline: as §1
# ORYSAT (Rice, Tebonnet) [8] = assay: Postemergence herbicidal evaluation; assay type: in vivo, Oryza sativa, (L.) Tebonnet
# Outline: as §1
# [9] = test system: GLXMAW (Soybean, Williams); assay: Postemergence herbicidal evaluation; assay type: in vivo, Glycine max, (L.) Merr. cv Williams
# Outline: as §1
# GALAP (Galium aparine) [10] = assay: Preemergence herbicidal evaluation; assay type: in vivo; settings: rated 4-5 weeks after treatment
# Outline: as §2
# [11] = test system: IPOHE (Ipomoea hederacea); assay: Postemergence herbicidal evaluation; assay type: in vivo, (L.) Jacq.
# Outline: as §1
# [12] = test system: ECHCG (Echinochloa crus-galli); assay: Preemergence herbicidal evaluation; assay type: in vivo, (L.) Beau; settings: rated 4-5 weeks after treatment
# Outline: as §2
# SETVI (Setaria viridis) = assay: Preemergence herbicidal evaluation; assay type: in vivo, (L.) Beau; settings: rated 4-5 weeks after treatment
# Outline: as §2
# ZEAMX (Corn, Field) = assay: Postemergence herbicidal evaluation; assay type: in vivo, Zea mays, L.
# Outline: as §1
smiles,measurement,setting,value
"Cc1ccn(-c2nsc3ccc(-n4c(=O)cc(C(F)(F)F)n(C)c4=O)cc23)n1 [Compound 38, 1-methyl-3-[3-(3-methylpyrazol-1-yl)-1,2-benzisothiazol-5-yl]-6-(trifluoromethl)uracil]","Postemergence herbicidal rating, GALAP",GALAP (Galium aparine) [1]; rate 0.0320 kg/ha,0.0
same,"Postemergence herbicidal rating, GALAP",GALAP (Galium aparine) [1]; rate 0.0620 kg/ha,4.0
same,ORYSAT preemergence herbicidal rating,"ORYSAT (Rice, Tebonnet) [2]; Rate 0.0620 kg/ha",4.0
same,ORYSAT preemergence herbicidal rating,"ORYSAT (Rice, Tebonnet) [2]; Rate 0.1250 kg/ha",5.0
same,ORYSAT preemergence herbicidal rating,"ORYSAT (Rice, Tebonnet) [2]; Rate 0.2500 kg/ha",7.0
same,TRZAWR preemergence herbicidal rating,[3]; Rate 0.0620 kg/ha,3.0
same,TRZAWR preemergence herbicidal rating,[3]; Rate 0.1250 kg/ha,4.0
same,TRZAWR preemergence herbicidal rating,[3]; Rate 0.2500 kg/ha,5.0
same,"Postemergence herbicidal rating, AMBEL",[4]; rate 0.0320 kg/ha,0.0
same,"Postemergence herbicidal rating, AMBEL",[4]; rate 0.0620 kg/ha,0.0
same,"Postemergence herbicidal rating, CASOB",[5]; rate 0.0320 kg/ha,0.0
same,"Postemergence herbicidal rating, CASOB",[5]; rate 0.0620 kg/ha,1.0
same,"Postemergence herbicidal rating, CHEAL",[6]; rate 0.0320 kg/ha,0.0
same,"Postemergence herbicidal rating, CHEAL",[6]; rate 0.0620 kg/ha,3.0
same,"Postemergence herbicidal rating, ABUTH",[7]; rate 0.0320 kg/ha,9.0
same,"Postemergence herbicidal rating, ABUTH",[7]; rate 0.0620 kg/ha,9.0
same,"Postemergence herbicidal rating, ORYSAT","ORYSAT (Rice, Tebonnet) [8]; rate 0.0320 kg/ha",2.5
same,"Postemergence herbicidal rating, ORYSAT","ORYSAT (Rice, Tebonnet) [8]; rate 0.0620 kg/ha",3.5
same,"Postemergence herbicidal rating, GLXMAW",[9]; rate 0.0320 kg/ha,5.5
same,"Postemergence herbicidal rating, GLXMAW",[9]; rate 0.0620 kg/ha,7.0
same,GALAP preemergence herbicidal rating,GALAP (Galium aparine) [10]; Rate 0.0620 kg/ha,5.0
same,GALAP preemergence herbicidal rating,GALAP (Galium aparine) [10]; Rate 0.1250 kg/ha,3.0
same,GALAP preemergence herbicidal rating,GALAP (Galium aparine) [10]; Rate 0.2500 kg/ha,5.0
same,"Postemergence herbicidal rating, IPOHE",[11]; rate 0.0320 kg/ha,7.0
same,"Postemergence herbicidal rating, IPOHE",[11]; rate 0.0620 kg/ha,9.0
same,ECHCG preemergence herbicidal rating,[12]; Rate 0.0620 kg/ha,7.0
same,ECHCG preemergence herbicidal rating,[12]; Rate 0.1250 kg/ha,9.0
same,ECHCG preemergence herbicidal rating,[12]; Rate 0.2500 kg/ha,9.0
same,SETVI preemergence herbicidal rating,SETVI (Setaria viridis); Rate 0.0620 kg/ha,5.0
same,SETVI preemergence herbicidal rating,SETVI (Setaria viridis); Rate 0.1250 kg/ha,9.0
same,SETVI preemergence herbicidal rating,SETVI (Setaria viridis); Rate 0.2500 kg/ha,9.0
same,"Postemergence herbicidal rating, ZEAMX","ZEAMX (Corn, Field); rate 0.0320 kg/ha",5.0
same,"Postemergence herbicidal rating, ZEAMX","ZEAMX (Corn, Field); rate 0.0620 kg/ha",5.5
"C#CCOC(=O)COc1ccsc1-c1nsc2ccc(-n3c(=O)cc(C(F)(F)F)n(C)c3=O)cc12 [Compound 39, 2-propynyl [[2-[5-[3,6-dihydro-3-methyl-2,6-dioxo-4-(trifluoromethyl)-1(2H)-pyrimidinyl]-1,2-benzisothiazol-3-yl]-3-thienyl]oxy]acetate]","Postemergence herbicidal rating, GALAP",GALAP (Galium aparine) [1]; rate 0.0320 kg/ha,0.0
same,"Postemergence herbicidal rating, GALAP",GALAP (Galium aparine) [1]; rate 0.0620 kg/ha,1.0
same,Preemergence herbicidal rating ORYSAT,"ORYSAT (Rice, Tebonnet) [2]; Rate 0.0620 kg/ha",0.0
same,ORYSAT preemergence herbicidal rating,"ORYSAT (Rice, Tebonnet) [2]; Rate 0.1250 kg/ha",0.0
same,ORYSAT preemergence herbicidal rating,"ORYSAT (Rice, Tebonnet) [2]; Rate 0.2500 kg/ha",1.0
same,Preemergence herbicidal rating TRZAWR,[3]; Rate 0.0620 kg/ha,0.0
same,TRZAWR preemergence herbicidal rating,[3]; Rate 0.1250 kg/ha,0.0
same,TRZAWR preemergence herbicidal rating,[3]; Rate 0.2500 kg/ha,1.0
same,"Postemergence herbicidal rating, AMBEL",[4]; rate 0.0320 kg/ha,3.0
same,"Postemergence herbicidal rating, AMBEL",[4]; rate 0.0620 kg/ha,3.0
same,"Postemergence herbicidal rating, CASOB",[5]; rate 0.0320 kg/ha,0.0
same,"Postemergence herbicidal rating, CASOB",[5]; rate 0.0620 kg/ha,0.0
same,"Postemergence herbicidal rating, CHEAL",[6]; rate 0.0320 kg/ha,0.0
same,"Postemergence herbicidal rating, CHEAL",[6]; rate 0.0620 kg/ha,4.0
same,"Postemergence herbicidal rating, ABUTH",[7]; rate 0.0320 kg/ha,2.0
same,"Postemergence herbicidal rating, ABUTH",[7]; rate 0.0620 kg/ha,9.0
same,"Postemergence herbicidal rating, ORYSAT","ORYSAT (Rice, Tebonnet) [8]; rate 0.0320 kg/ha",1.5
same,"Postemergence herbicidal rating, ORYSAT","ORYSAT (Rice, Tebonnet) [8]; rate 0.0620 kg/ha",2.0
same,"Postemergence herbicidal rating, GLXMAW",[9]; rate 0.0320 kg/ha,5.0
same,"Postemergence herbicidal rating, GLXMAW",[9]; rate 0.0620 kg/ha,5.0
same,Preemergence herbicidal rating GALAP,GALAP (Galium aparine) [10]; Rate 0.0620 kg/ha,0.0
same,GALAP preemergence herbicidal rating,GALAP (Galium aparine) [10]; Rate 0.1250 kg/ha,0.0
same,GALAP preemergence herbicidal rating,GALAP (Galium aparine) [10]; Rate 0.2500 kg/ha,0.0
same,"Postemergence herbicidal rating, IPOHE",[11]; rate 0.0320 kg/ha,4.0
same,"Postemergence herbicidal rating, IPOHE",[11]; rate 0.0620 kg/ha,4.0
same,Preemergence herbicidal rating ECHCG,[12]; Rate 0.0620 kg/ha,0.0
same,ECHCG preemergence herbicidal rating,[12]; Rate 0.1250 kg/ha,0.0
same,ECHCG preemergence herbicidal rating,[12]; Rate 0.2500 kg/ha,0.0
same,Preemergence herbicidal rating SETVI,SETVI (Setaria viridis); Rate 0.0620 kg/ha,0.0
same,SETVI preemergence herbicidal rating,SETVI (Setaria viridis); Rate 0.1250 kg/ha,1.0
same,SETVI preemergence herbicidal rating,SETVI (Setaria viridis); Rate 0.2500 kg/ha,6.0
same,"Postemergence herbicidal rating, ZEAMX","ZEAMX (Corn, Field); rate 0.0320 kg/ha",4.5
same,"Postemergence herbicidal rating, ZEAMX","ZEAMX (Corn, Field); rate 0.0620 kg/ha",5.0
"Cc1cc(C)nc(-c2nsc3ccc(-n4c(=O)cc(C(F)(F)F)n(C)c4=O)cc23)n1 [Compound 40, 3-[3-(4,6-dimethyl-2-pyrimidinyl)-1,2-benzisothiazol-5-yl]-1-methyl-6-(trifluoromethyl)uracil]","Postemergence herbicidal rating, GALAP",GALAP (Galium aparine) [1]; rate 0.0320 kg/ha,2.0
same,"Postemergence herbicidal rating, GALAP",GALAP (Galium aparine) [1]; rate 0.0620 kg/ha,2.0
same,Preemergence herbicidal rating ORYSAT,"ORYSAT (Rice, Tebonnet) [2]; Rate 0.0620 kg/ha",1.0
same,Preemergence herbicidal rating ORYSAT,"ORYSAT (Rice, Tebonnet) [2]; Rate 0.1250 kg/ha",2.0
same,Preemergence herbicidal rating ORYSAT,"ORYSAT (Rice, Tebonnet) [2]; Rate 0.2500 kg/ha",4.0
same,Preemergence herbicidal rating TRZAWR,[3]; Rate 0.0620 kg/ha,1.0
same,Preemergence herbicidal rating TRZAWR,[3]; Rate 0.1250 kg/ha,5.0
same,Preemergence herbicidal rating TRZAWR,[3]; Rate 0.2500 kg/ha,9.0
same,"Postemergence herbicidal rating, AMBEL",[4]; rate 0.0320 kg/ha,9.0
same,"Postemergence herbicidal rating, AMBEL",[4]; rate 0.0620 kg/ha,9.0
same,"Postemergence herbicidal rating, CASOB",[5]; rate 0.0320 kg/ha,1.0
same,"Postemergence herbicidal rating, CASOB",[5]; rate 0.0620 kg/ha,6.0
same,"Postemergence herbicidal rating, CHEAL",[6]; rate 0.0320 kg/ha,4.0
same,"Postemergence herbicidal rating, CHEAL",[6]; rate 0.0620 kg/ha,6.0
same,"Postemergence herbicidal rating, ABUTH",[7]; rate 0.0320 kg/ha,9.0
same,"Postemergence herbicidal rating, ABUTH",[7]; rate 0.0620 kg/ha,9.0
same,"Postemergence herbicidal rating, ORYSAT","ORYSAT (Rice, Tebonnet) [8]; rate 0.0320 kg/ha",2.0
same,"Postemergence herbicidal rating, ORYSAT","ORYSAT (Rice, Tebonnet) [8]; rate 0.0620 kg/ha",2.0
same,"Postemergence herbicidal rating, GLXMAW",[9]; rate 0.0320 kg/ha,7.0
same,"Postemergence herbicidal rating, GLXMAW",[9]; rate 0.0620 kg/ha,8.0
same,Preemergence herbicidal rating GALAP,GALAP (Galium aparine) [10]; Rate 0.0620 kg/ha,0.0
same,Preemergence herbicidal rating GALAP,GALAP (Galium aparine) [10]; Rate 0.1250 kg/ha,0.0
same,Preemergence herbicidal rating GALAP,GALAP (Galium aparine) [10]; Rate 0.2500 kg/ha,8.0
same,"Postemergence herbicidal rating, IPOHE",[11]; rate 0.0320 kg/ha,9.0
same,"Postemergence herbicidal rating, IPOHE",[11]; rate 0.0620 kg/ha,9.0
same,Preemergence herbicidal rating ECHCG,[12]; Rate 0.0620 kg/ha,3.0
same,Preemergence herbicidal rating ECHCG,[12]; Rate 0.1250 kg/ha,7.0
same,Preemergence herbicidal rating ECHCG,[12]; Rate 0.2500 kg/ha,8.0
same,Preemergence herbicidal rating SETVI,SETVI (Setaria viridis); Rate 0.0620 kg/ha,3.0
same,Preemergence herbicidal rating SETVI,SETVI (Setaria viridis); Rate 0.1250 kg/ha,9.0
same,Preemergence herbicidal rating SETVI,SETVI (Setaria viridis); Rate 0.2500 kg/ha,9.0
same,"Postemergence herbicidal rating, ZEAMX","ZEAMX (Corn, Field); rate 0.0320 kg/ha",4.5
same,"Postemergence herbicidal rating, ZEAMX","ZEAMX (Corn, Field); rate 0.0620 kg/ha",5.0
